The source of these data is patent US20260234144A1 (TAY THERAPEUTICS LIMITED, priority 2023, published 2026).

In this experiment the test system is R223X stop codon in the mutated luciferase gene, ADXC8 luciferase reporter cell line. As to the kind of experiment: cells. Format: cell-based. Particulars: ADXC8 cells, 24 hours; for Emax / EC (100% of 200 uM G418 response): 24 h; for Emax: read-out: Fold Over Control, maximum fold response relative to 200 μM G418; for EC (100% of 200 uM G418 response): read-out: pC100%, negative logarithm of the concentration giving the same response as 200 μM G418.

SMILES strings stand for the structures.

`CNc1nc(N[C@@H]2CCNC2)nc2nc(C)c(Cl)c(C)c12` [Example 358]: the Emax is 100 to 3000% and the EC (100% of 200 uM G418 response) lay in the range of 0.1 to 1 µM.
For the compound `COCCNc1nc(NC2CCN(C)CC2)nc2nc(C)cc(C)c12` [Example 269], the Emax fell in the range of 100 to 3000% and the EC (100% of 200 uM G418 response) fell in the range of 1 to 10 µM.
On the same counts, the results for `Cc1cc(C)c2c(N)nc(NCC3CNC3)nc2n1` [Example 199] are 0 to 100% and more than 31.6 µM.
On the same counts, the results for `Cc1cnc2nc(NC3CCN(C)CC3)nc(N)c2c1` [Example 4, 6-methyl-N^2-(1-methylpiperidin-4-yl)pyrido[2,3-d]pyrimidine-2,4-diamine] are 100 to 3000% and 10 to 100 µM.
With `CNc1nc(N[C@@H]2CNC[C@@H]2O)nc2nc3c(c(C)c12)CCC3` [Example 657], the Emax fell in the range of 100 to 3000% and the EC (100% of 200 uM G418 response) is 1 to 10 µM.
Take `Cc1cc(C)c2c(N)nc(NCCN3CCC3)nc2n1` [Example 184]: the Emax fell in the range of 100 to 3000% and the EC (100% of 200 uM G418 response) is 10 to 100 µM.
As for `Cc1cc(C)c2c(N)nc(NC3CCN(Cc4ccc(C(N)=O)cc4)CC3)nc2n1` [Example 476], the Emax was in the range of 100 to 3000% and the EC (100% of 200 uM G418 response) lay in the range of 10 to 100 µM.
For `CNc1nc(NC2CCN(Cc3ccc(C#N)cc3)CC2)nc2nc(C)cc(C)c12` [Example 580], the Emax was in the range of 100 to 3000% and the EC (100% of 200 uM G418 response) was 1 to 10 µM.
For `CNc1nc(N[C@@]2(C)CCN(C)C2)nc2nc(C)cc(C)c12` [Example 638], the Emax lay within 0 to 100% and the EC (100% of 200 uM G418 response) was more than 31.6 µM.
As to `Cc1cc(C)c2c(N)cc(NCCCCN(C)C)nc2n1` [Example 254, N^2-(4-(dimethylamino)butyl)-5,7-dimethyl-1,8-naphthyridine-2,4-diamine], the Emax is 100 to 3000% and the EC (100% of 200 uM G418 response) lay within 10 to 100 µM.
As for `Cc1cc(C)c2c(N)nc(N[C@H]3CN(C)C[C@@H]3O)nc2n1` [Example 226, (3S,4S)-4-((4-amino-5,7-dimethylpyrido[2,3-d]pyrimidin-2-yl)amino)-1-methylpyrrolidin-3-ol], the Emax is 100 to 3000% and the EC (100% of 200 uM G418 response) was 0.1 to 1 µM.
With `CN1CCC(Nc2nc(N)c3ccc(-c4ccc(F)c(F)c4)nc3n2)CC1` [Example 108], the EC (100% of 200 uM G418 response) fell in the range of 1 to 10 µM.
As for `CNc1nc(N[C@@H]2CCN(C)C2)nc2nc3c(c(C)c12)CCC3` [Example 336], the Emax fell in the range of 100 to 3000% and the EC (100% of 200 uM G418 response) is 0.1 to 1 µM.
On to `CCNc1nc(N[C@H]2CNC[C@@H]2O)nc2nc(C)cc(C)c12` [Example 392], for which the EC (100% of 200 uM G418 response) was 1 to 10 µM.
Same read-out and setting: as for `Cc1cc(C)c2c(NCC(F)F)nc(N[C@@H]3CCN(C)C3)nc2n1` [Example 636], the figure is 1 to 10 µM.
On to `CNc1nc(N[C@@H]2CCN(C)C2)nc2nc(OC)c(CCO)c(C)c12` [Example 513, (R)-2-(7-methoxy-5-methyl-4-(methylamino)-2-((1-methylpyrrolidin-3-yl)amino)pyrido[2,3-d]pyrimidin-6-yl)ethan-1-ol], for which the Emax is 0 to 100% and the EC (100% of 200 uM G418 response) is more than 31.6 µM.
In the case of `Cc1cc(C)c2c(N)nc(NCCCN3CC4(COC4)C3)nc2n1` [Example 29, N^2-(3-(2-oxa-6-azaspiro[3.3]heptan-6-yl)propyl)-5,7-dimethylpyrido[2,3-d]pyrimidine-2,4-diamine], the Emax was 100 to 3000% and the EC (100% of 200 uM G418 response) is 10 to 100 µM.
With `CN1CCC(Nc2nc(N)c3ccc(-c4ccc(N)cc4)nc3n2)CC1` [Example 68], the Emax fell in the range of 100 to 3000% and the EC (100% of 200 uM G418 response) lay within 10 to 100 µM.
`CNc1nc(NC2CN3CCC2C3)nc2nc(C)cc(C)c12` (stereo not drawn) [Example 449]: the Emax was in the range of 0 to 100% and the EC (100% of 200 uM G418 response) was more than 31.6 µM.
For `CN1CCC(Nc2nc(N)c3ccc(-c4cc(F)ccc4F)nc3n2)CC1` [Example 69], the Emax lay in the range of 100 to 3000% and the EC (100% of 200 uM G418 response) was 1 to 10 µM.
On the same counts, the results for `CNc1nc(N[C@H]2C3CC[C@@H]2NC3)nc2nc(C)cc(C)c12` [Example 444] are 100 to 3000% and 10 to 100 µM.
Consider `Cc1cc(C)c2c(NCCN)nc(NC3CCN(C)CC3)nc2n1` [Example 315], for which the Emax was in the range of 0 to 100% and the EC (100% of 200 uM G418 response) is more than 31.6 µM.
With `CC(O)c1ccc2c(N)nc(NC3CCN(C)CC3)nc2n1` (stereo not drawn) [Example 288], the Emax lay within 100 to 3000% and the EC (100% of 200 uM G418 response) was in the range of 10 to 100 µM.
Take `CNc1nc(NC2CNCC2C#N)nc2nc(C)cc(C)c12` (single isomer, unassigned) [Example 450]: the “Fold Over Control” value (maximum fold response relative to 200 μM G418) was “## (Fold over Ctrl > 1 ≤ 30)”. For the same compound, the pC100% entry (negative logarithm of the concentration giving the same response as 200 μM G418) is listed as “++ (pC100% > 5.0 ≤ 6.0)”.
In the case of `CNC(=O)c1cccc(CN2CCC(Nc3nc(N)c4c(C)cc(C)nc4n3)CC2)c1` [Example 477], the Emax lay in the range of 100 to 3000% and the EC (100% of 200 uM G418 response) was in the range of 10 to 100 µM.
Turning to `Cc1cc(C)c2c(N)nc(NC3CCN(Cc4cccnc4)CC3)nc2n1` [Example 504], the Emax was in the range of 100 to 3000% and the EC (100% of 200 uM G418 response) was in the range of 1 to 10 µM.
As for `CC(=O)c1ccc2c(N)nc(NC3CCN(C)CC3)nc2n1` [Example 289], the Emax fell in the range of 100 to 3000% and the EC (100% of 200 uM G418 response) is 1 to 10 µM.
In the case of `CN1CCC(Nc2nc(N)c3ccc(-c4cccc(Cl)c4)nc3n2)CC1` [Example 91], the EC (100% of 200 uM G418 response) lay within 1 to 10 µM.
Consider `Cc1cc(C)c2c(N)nc(NC3CC4CCC[C@H](C3)N4)nc2n1` (stereo partly drawn) [Example 196], for which the Emax lay in the range of 100 to 3000% and the EC (100% of 200 uM G418 response) lay within 1 to 10 µM.
Consider `CN(C)Cc1cccc(-c2ccc3c(N)nc(NC4CCN(C)CC4)nc3n2)c1` [Example 76], for which the Emax fell in the range of 100 to 3000% and the EC (100% of 200 uM G418 response) fell in the range of 10 to 100 µM.
Regarding `Cc1cc(C)c2c(N)nc(NC3CCN(Cc4ccccc4C(F)(F)F)CC3)nc2n1` [Example 490], the Emax was 100 to 3000% and the EC (100% of 200 uM G418 response) fell in the range of 10 to 100 µM.
As for `CNc1nc(N[C@H]2CNC[C@@H]2C(F)(F)F)nc2nc(C)cc(C)c12` [Example 417], the EC (100% of 200 uM G418 response) was 1 to 10 µM.
As to `Cc1nc2nc(NC3CCN(C)CC3)nc(N)c2c(C)c1Br` [Example 22, 6-bromo-5,7-dimethyl-N^2-(1-methylpiperidin-4-yl)pyrido[2,3-d]pyrimidine-2,4-diamine], the Emax is 100 to 3000% and the EC (100% of 200 uM G418 response) fell in the range of 1 to 10 µM.
Consider `CCCNc1nc(N[C@@H]2CCN(C)C2)nc2nc(C)cc(C)c12` [Example 390], for which the Emax fell in the range of 100 to 3000% and the EC (100% of 200 uM G418 response) was 1 to 10 µM.
Regarding `COc1ccc(CNc2ccnc3nc(NC4CCN(C)CC4)nc(N)c23)cc1` [Example 298], the Emax fell in the range of 0 to 100% and the EC (100% of 200 uM G418 response) is more than 100 µM.
For the compound `COc1ccc(CN2CCC(Nc3nc(N)c4c(C)cc(C)nc4n3)CC2)cc1` [Example 478], the Emax was 100 to 3000% and the EC (100% of 200 uM G418 response) fell in the range of 0.1 to 1 µM.
For `COCc1ccc(-c2ccc3c(N)nc(NC4CCN(C)CC4)nc3n2)cc1` [Example 78], in that order: 100 to 3000% and 1 to 10 µM.
Regarding `CNc1nc(NC2CCNCC2)nc2nc(C)c3c(c12)CCC3` [Example 552], the EC (100% of 200 uM G418 response) lay in the range of 0.1 to 1 µM.
On to `Cc1cc(C)c2c(N)nc(N[C@H]3CCCN(Cc4ccccc4)C3)nc2n1` [Example 215], for which the Emax fell in the range of 100 to 3000% and the EC (100% of 200 uM G418 response) lay within 1 to 10 µM.
